According to patent US20220132852A1, “PESTICIDALLY ACTIVE HETEROCYCLIC DERIVATIVES WITH SULFUR CONTAINING SUBSTITUENTS” (SYNGENTA CROP PROTECTION AG, priority 2019, published 2022):
Where two headings read alike, the source gives them in different places.

Tests used:
[1] = tested on: Diabrotica balteata (Corn Root Worm); experiment: Example B1: Activity against Diabrotica balteata (corn root worm), sprayed maize sprouts; format: in vivo; settings: 96 h, application rate 200 ppm, L2 larvae on sprayed maize sprouts, 4 days after infestation, read-out: effect in at least one of the two categories (mortality or growth inhibition)
Protocol: Example B1: Activity Against Diabrotica balteata (Corn Root Worm)
Maize sprouts placed onto an agar layer in 24-well microtiter plates were treated with aqueous test solutions prepared from 10′000 ppm DMSO stock solutions by spraying. After drying, the plates were infested with L2 larvae (6 to 10 per well). The samples were assessed for mortality and growth inhibition in comparison to untreated samples 4 days after infestation.

[2] = tested on: Euschistus heros (Neotropical Brown Stink Bug); experiment: Example B2: Activity against Euschistus heros (neotropical brown stink bug), sprayed soybean leaves; format: in vivo; settings: 120 h, application rate 200 ppm, N2 nymphs on sprayed soybean leaves, 5 days after infestation, read-out: effect in at least one of the two categories (mortality or growth inhibition)
Protocol: Example B2: Activity Against Euschistus heros (Neotropical Brown Stink Bug)
Soybean leaves on agar in 24-well microtiter plates were sprayed with aqueous test solutions prepared from 10′000 ppm DMSO stock solutions. After drying the leaves were infested with N2 nymphs. The samples were assessed for mortality and growth inhibition in comparison to untreated samples 5 days after infestation.

[3] = tested on: Spodoptera littoralis (Egyptian Cotton Leaf Worm); experiment: Example B6: Activity against Spodoptera littoralis (Egyptian cotton leaf worm); format: in vivo; settings: foliar, 72 h, application rate 200 ppm, L1 larvae on sprayed cotton leaf discs, 3 days after infestation, read-out: control (mortality, anti-feeding effect or growth inhibition)
Method in brief: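 Cotton leaf discs on agar were sprayed with aqueous test solutions prepared from 10'000 ppm DMSO stocks. After drying, each disc was infested with five L1 larvae. Mortality, anti-feeding and growth inhibition were scored against untreated samples 3 days after infestation.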

[4] = tested on: Frankliniella occidentalis (Western Flower Thrips); experiment: Example B8: Activity against Frankliniella occidentalis (western flower thrips); format: in vivo; settings: foliar, 168 h, application rate 200 ppm, sprayed sunflower leaf discs, mixed ages, 7 days after infestation
Protocol: Example B8: Activity Against Frankliniella occidentalis (Western Flower Thrips)
Sunflower leaf discs were placed on agar in 24-well microtiter plates and sprayed with aqueous test solutions prepared from […] stock solutions. After drying the leaf discs were infested with a Frankliniella population of mixed ages. The samples were assessed for mortality 7 days after infestation.

[5] = tested on: Plutella xylostella (Diamond Back Moth); experiment: Example B3: Activity against Plutella xylostella (diamond back moth), artificial diet; format: in vivo; settings: 192 h, application rate 200 ppm, eggs on artificial diet, 8 days after infestation, read-out: effect in at least one of the two categories (mortality or growth inhibition)
[6] = tested on: Tetranychus urticae (Two-Spotted Spider Mite); experiment: Example B9: Activity against Tetranychus urticae (two-spotted spider mite); format: in vivo; settings: foliar, 192 h, read-out: mortality on mixed population (mobile stages)
Protocol: Example B9: Activity Against Tetranychus urticae (Two-Spotted Spider Mite)
Bean leaf discs on agar in 24-well microtiter plates were sprayed with aqueous test solutions prepared from 10′000 ppm DMSO stock solutions. After drying the leaf discs were infested with a mite population of mixed ages. The samples were assessed for mortality on mixed population (mobile stages) 8 days after infestation.

[7] = tested on: Myzus persicae (Green Peach Aphid); experiment: whole plant or invertebrate; format: in vivo; settings: foliar, 144 h, application rate 200 ppm, sprayed sunflower leaf discs, mixed ages, 6 days after infestation
Protocol: Example B4: Activity Against Myzus persicae (Green Peach Aphid) Feeding/Contact Activity
Sunflower leaf discs were placed onto agar in a 24-well microtiter plate and sprayed with aqueous test solutions prepared from 10′000 ppm DMSO stock solutions. After drying, the leaf discs were infested with an aphid population of mixed ages. The samples were assessed for mortality 6 days after infestation.

Q: Which percent effect (mortality or growth inhibition) at 200 ppm [1] does the source give for `CCS(=O)(=O)c1ccc(C2CC2)nc1-c1cc2cnn(CC(F)(F)C(F)(F)F)c2cn1` [Compound P26, 5-(6-cyclopropyl-3-ethylsulfonyl-2-pyridyl)-1-(2,2,3,3,3,- pentafluoropropyl) pyrazolo[3,4-c]pyridine] here?
A: ≥ 80%

Q: And the percent effect (mortality or growth inhibition) at 200 ppm [2]?
A: ≥ 80%

Q: What about the percent control (mortality, anti-feedant effect or growth inhibition) at 200 ppm [3] of the same molecule?
A: ≥ 80%

Q: What about the mortality at 200 ppm [4] of the same molecule?
A: ≥ 80%

Q: And the percent effect (mortality or growth inhibition) at 200 ppm [5]?
A: ≥ 80%

Q: And the mortality at 200 ppm [6]?
A: ≥ 80%

Q: And the mortality at 200 ppm [7]?
A: ≥ 80%

Q: Which melting point does the source give for `CCSc1ccc(Cl)nc1-c1cc2ccn(CC(F)(F)C(F)(F)F)c2cn1` [Compound P48, 5-(6-chloro-3-ethylsulfanyl-2-pyridyl)-1-(2,2,3,3,3-pentafluoropropyl) pyrrolo[2,3-c]pyridine] here?
A: 185 to 188 °C

Q: With `CCSc1ccc[n+]([O-])c1-c1cc2ccn(CC(F)(F)C(F)(F)F)c2cn1` [PN2, 5-(3-ethylsulfanyl-1-oxido-pyridin-1-ium-2-yl)-1-(2,2,3,3,3-pentafluoropropyl) pyrrolo[2,3-c]pyridine] as the molecule, how does the melting point read?
A: 181 to 185 °C

Q: For `CCSc1cc(C(C)(C)C#N)c[n+]([O-])c1-c1cc2ccn(CC(F)(F)C(F)(F)F)c2cn1` [PN6, 2-[5-ethylsulfanyl-1-oxido-6-[1-(2,2,3,3,3-pentafluoropropyl)pyrrolo[2,3-c]pyridin-5-yl]pyridin-1-ium-3-yl]-2-methyl-propanenitrile], which mortality at 200 ppm ([6]; application rate 200 ppm, sprayed bean leaf discs, 8 days after infestation) is on record?
A: ≥ 80%
